{"source": "patent US20240189615A1", "about": "“METHOD AND SYSTEM FOR PRODUCING APOPTOTIC MONONUCLEAR CELLS” (MACO PHARMA, priority 2020, published 2024)", "key": {"[1]": {"system": "JURKAT cells", "assay": "Apoptosis test (annexin-V FITC / propidium iodide flow cytometry), delta-apoptosis", "assay_type": "cell-based, human", "description": "To obtain the desired quantity of JURKAT cells, they were cultured in an RPMI 1640 medium supplemented with foetal calf serum (10% v/v), 1% L-glutamine (Lonza) and 1% penicillin-streptomycin (Lonza). Cells were grown in culture flasks placed in an incubator at 37° C. and 5% CO2. The JURKAT doubling time was approximately 27 hours.\nThe cells were suspended in a solution of PBS (phosphate buffer saline) or in a 2% haematocrit solution comprising 1/14 of the anticoagulant ACD-A, a 50/50 v/v mixture of NaCl and plasma. The final volume was such that the thickness of the cell suspension in the container was around 3 mm.\nIn the case of UVA irradiation, the cell solution also contained 200 ng/ ml or 333° ng/ml of 8-MOP.\nAt the end of the irradiation step, the cell solutions with a haematocrit level of 2% are washed in order to recover as many JURKAT cells as possible for culture with low contamination by red blood cells. To do this, the components were separated by density gradient using a Ficoll solution (GE Healthcare).\nAfter JURKAT isolation, the cells were washed three times to remove the Ficoll solution. The first two washes were performed in a PBS solution with 2 mM EDTA (Thermo Fisher), and the third was performed in a PBS solution. The cells were then re-suspended in supplemented RPMI medium and counted using Vi-cell and ABX in order to estimate the number of JURKAT that had been isolated and to assess the quantity of residual red blood cells.\n(§1) To monitor the parameters of interest (apoptosis and inhibition of JURKAT proliferation), the cells were cultured using cell counting. To do this, 5.10^6 treated cells and 5.10^6 untreated cells were seeded in 10 ml of culture medium.\nApoptosis was studied by flow cytometry, using double labelling of cells with annexin-V coupled to a fluorophore FITC and propidium iodide (PI).\nDelta-apoptosis was determined by the following formula:\nΔapoptosis=(% apoptosis of treated cells−% apoptosis of untreated cells) [Math. 1]"}, "[2]": {"system": "JURKAT cells", "assay": "Inhibition of cell proliferation (Vi-cell counting)", "assay_type": "cell-based, human", "description": "The rate of inhibition of cell proliferation is determined by dividing the difference between the proliferation rate of the unirradiated control cells and the proliferation rate of the irradiated cells by the proliferation rate of the unirradiated control cells, the rate of cell proliferation being determined by dividing the total number of final cells by the total number of starting cells. The rate of inhibition of proliferation was determined 3 days after irradiation and after the cells had been cultured.\nas §1\nThe initial JURKAT population was 5.10^6 cells per culture flask. The number of cells per culture flask was then counted by Vi-cell.\nTo do this, the culture medium with the cells was centrifuged at 1500 rpm for 5 minutes and the pellet was resuspended in supplemented RPMI culture medium. Depending on the cell density, a 1/10 dilution in PBS could be performed.\nThe percentage inhibition of cell proliferation on day n (Dn) was determined by the following formula:\n% PI(Dn)=100−% P(Dn) [Math. 2]\nin which % P(Dn) is the cell proliferation rate at n days, determined by the following formula: […]"}, "[3]": {"conditions": "JURKAT cells 330.10^6 in 300 ml, 2% haematocrit plasma/saline, 333 ng/ml 8-MOP, bag, Macogenic G2 (Maco Pharma ECP system)"}}, "data": [{"smiles": "COc1c2occc2cc2ccc(=O)oc12", "note": "[8-MOP, 8-methoxypsoralen]", "values": [{"measurement": "UVA dose from which acceptance criterion in terms of delta-apoptosis was achieved", "setting": "[1]; [3]", "result": "≥ 2", "unit": "J/cm^2"}, {"measurement": "UVA dose meeting the acceptance criterion in terms of delta-apoptosis", "setting": "[1]; JURKAT cells in PBS, 200 ng/ml 8-MOP, Petri dish, BS02 irradiator, criterion delta-apoptosis 30-40% one day, 50-60% two days after irradiation", "result": 0.13, "unit": "J/cm^2"}, {"measurement": "rate of cell necrosis", "setting": "[1]; JURKAT cells in PBS, 200 ng/ml 8-MOP, all doses of UVA radiation tested (0.03-0.4 J/cm^2)", "result": "below 1%"}, {"measurement": "equivalent UVA dose (sigmoidal model of delta-apoptosis), BS02 irradiator", "setting": "[1]; JURKAT cells in plasma, 333 ng/ml 8-MOP, BS02 irradiator in UVA", "result": 4, "unit": "J/cm^2"}, {"measurement": "equivalent UVA dose (sigmoidal model of delta-apoptosis), Macogenic G2", "setting": "[1]; JURKAT cells in plasma, 333 ng/ml 8-MOP, delivered with Macogenic G2", "result": 2.1, "unit": "J/cm^2"}, {"measurement": "UVA dose at which acceptance criterion for delta-apoptosis was reached", "setting": "[1]; JURKAT cells in plasma/saline 50/50, 2% haematocrit, 333 ng/ml 8-MOP, Petri dish, BS02 irradiator", "result": 4, "unit": "J/cm^2"}, {"measurement": "UVA dose from which acceptance criterion in terms of proliferation inhibition was achieved", "setting": "[2]; [3]", "result": "≥ 2", "unit": "J/cm^2"}, {"measurement": "UVA dose meeting the acceptance criterion in terms of inhibition of proliferation", "setting": "[2]; JURKAT cells in PBS, 200 ng/ml 8-MOP, Petri dish, BS02 irradiator, criterion inhibition >70% 3 days after irradiation", "result": 0.13, "unit": "J/cm^2"}, {"measurement": "UVA dose at which acceptance criterion for rate of proliferation inhibition was reached", "setting": "[2]; JURKAT cells in plasma/saline 50/50, 2% haematocrit, 333 ng/ml 8-MOP, Petri dish, BS02 irradiator, D+3", "result": 3, "unit": "J/cm^2"}]}]}
